39 compounds from patent publication US8716292B2, “Riminophenazines with 2-(heteroaryl)amino substituents and their anti-microbial activity” (priority 2010, dated 2014) can be followed below.

≈ marks a conversion by molar mass, not a printed value.

The test deals with Mycobacterium tuberculosis H37Rv strains. Briefly: In vitro assay for antimicrobial susceptibility (microplate Alamar blue MIC). It is filed as cell-based. Conditions: Mycobacterium tuberculosis, H37RV, in vitro, Mycobacterium tuberculosis H37Rv strains; read-out: MIC (μg/mL) against H37Rv. A general note: Resazurin is reduced to fluorescent resorufin, in cell work by metabolically active cells.
`Cc1ccc(Nc2cc3nc4ccccc4n(-c4ccc(Cl)cc4)c-3c/c2=N\CCN2CCOCC2)cn1` [TBI-445, 5-(4-Chlorophenyl)-3-(2-morpholinoethyl)imino-2-(6-methyl-3-pyridyl)amino-3,5-dihydrophenazine]: the MIC amounted to 0.076 µg/mL (≈ 0.145 µM). For the compound `Cc1ccc(Nc2cc3nc4ccccc4n(-c4ccc(Cl)cc4)c-3c/c2=N\C2CCN(C)CC2)cn1` [TBI-446, 5-(4-Chlorophenyl)-3-(N-methyl-4-piperidyl)imino-2-(6-methyl-3-pyridyl)amino-3,5-dihydrophenazine], the MIC was found to be 0.016 µg/mL (≈ 0.0314 µM). As to `Cc1ccc(Nc2cc3nc4ccccc4n(-c4ccc(Cl)cc4)c-3c/c2=N\C2CCN(CC(C)C)CC2)cn1` [TBI-447, 5-(4-Chlorophenyl)-3-(N-isobutyl-4-piperidyl)imino-2-(6-methyl-3-pyridyl)amino-3,5-dihydrophenazine], the MIC was found to be 0.028 µg/mL (≈ 0.0508 µM).

`Cc1ncccc1Nc1cc2nc3ccccc3n(-c3ccc(Cl)cc3)c-2c/c1=N\C(C)C` [TBI-448, 5-(4-Chlorophenyl)-3-(1-methylethyl)imino-2-(2-methyl-3-pyridyl)amino-3,5-dihydrophenazine]: the MIC was 0.055 µg/mL (≈ 0.121 µM).

In the case of `COc1ncccc1Nc1cc2nc3ccccc3n(-c3ccc(Cl)cc3)c-2c/c1=N\C1CCCCC1` [TBI-451], the MIC turned out to be 0.057 µg/mL (≈ 0.112 µM). Regarding `Cc1ncccc1Nc1cc2nc3ccccc3n(-c3ccc(Cl)cc3)c-2c/c1=N\C1CCOCC1` [TBI-452], the MIC is 0.168 µg/mL (≈ 0.339 µM). With `COC1CCC(/N=c2\cc3n(-c4ccc(Cl)cc4)c4ccccc4nc-3cc2Nc2cccnc2C)CC1` (stereo not drawn) [TBI-453, 5-(4-Chlorophenyl)-3-(4-methoxycyclohexyl)imino-2-(2-methyl-3-pyridyl)amino-3,5-dihydrophenazine], the MIC stood at 0.011 µg/mL (≈ 0.021 µM).

As for `CSc1cccc(-n2c3c/c(=N\C(C)C)c(Nc4cccnc4)cc-3nc3ccccc32)c1` [TBI-454, 5-(3-Methylthiophenyl)-3-(1-methylethyl)imino-2-(3-pyridyl)amino-3,5-dihydrophenazine], the MIC was determined as 0.213 µg/mL (≈ 0.472 µM). Regarding `CC(C)/N=c1\cc2n(-c3cccc([S+](C)[O-])c3)c3ccccc3nc-2cc1Nc1cccnc1` (stereo not drawn) [TBI-455, 5-(3-Methylsulfinylphenyl)-3-(1-methylethyl)imino-2-(3-pyridyl)amino-3,5-dihydrophenazine], the MIC amounted to 0.5 µg/mL (≈ 1.07 µM). Consider `CSc1ccc(-n2c3c/c(=N\C(C)C)c(Nc4cccnc4)cc-3nc3ccccc32)cc1` [TBI-456, 5-(4-Methylthiophenyl)-3-(1-methylethyl)imino-2-(3-pyridyl)amino-3,5-dihydrophenazine], for which the MIC is 0.05 µg/mL (≈ 0.111 µM).

As to `CC(C)/N=c1\cc2n(-c3ccc([S+](C)[O-])cc3)c3ccccc3nc-2cc1Nc1cccnc1` (stereo not drawn) [TBI-457, 5-(4-Methylsulfinylphenyl)-3-(1-methylethyl)imino-2-(3-pyridyl)amino-3,5-dihydrophenazine], the MIC was 0.469 µg/mL (≈ 1 µM). Regarding `Clc1ccc(-n2c3c/c(=N\C4CCSCC4)c(Nc4cccnc4)cc-3nc3ccccc32)cc1` [TBI-458], the MIC was found to be 0.018 µg/mL (≈ 0.0361 µM). With `Cc1ccc(Nc2cc3nc4ccccc4n(-c4ccc(Br)cc4)c-3c/c2=N\C2CCC2)cn1` [TBI-501, 5-(4-Bromophenyl)-3-cyclobutylimino-2-(6-methyl-3-pyridyl)amino-3,5-dihydrophenazine], the MIC is 0.09 µg/mL (≈ 0.176 µM).

`Cc1ccc(Nc2cc3nc4ccccc4n(-c4ccc(Br)cc4)c-3c/c2=N\C2CCCCC2)cn1` [TBI-502, 5-(4-Bromophenyl)-3-cyclohexylimino-2-(6-methyl-3-pyridyl)amino-3,5-dihydrophenazine]: the MIC was 0.217 µg/mL (≈ 0.403 µM). In the case of `COC1CCC(/N=c2\cc3n(-c4ccc(Br)cc4)c4ccccc4nc-3cc2Nc2ccc(C)nc2)CC1` (stereo not drawn) [TBI-503, 5-(4-Bromophenyl)-3-(4-methoxycyclohexyl)imino-2-(6-methyl-3-pyridyl)amino-3,5-dihydrophenazine] it was 0.097 µg/mL (≈ 0.171 µM); in that of `Cc1ccc(Nc2cc3nc4ccccc4n(-c4ccc(Br)cc4)c-3c/c2=N\C2CCOCC2)cn1` [TBI-504, 5-(4-Bromophenyl)-3-(4-tetrahydropyranyl)imino-2-(6-methyl-3-pyridyl)amino-3,5-dihydrophenazine], 0.044 µg/mL (≈ 0.0814 µM); in that of `COc1ncccc1Nc1cc2nc3ccccc3n(-c3ccccc3)c-2c/c1=N\C1CCC1` [TBI-505, 5-Phenyl-3-cyclobutylimino-2-(2-methoxy-3-pyridyl)amino-3,5-dihydrophenazine], 0.043 µg/mL (≈ 0.0961 µM). In the case of `Cc1ccc(Nc2cc3nc4ccccc4n(-c4ccccc4)c-3c/c2=N\C2CCC2)cn1` [TBI-506, 5-Phenyl-3-cyclobutylimino-2-(6-methyl-3-pyridyl)amino-3,5-dihydrophenazine], the MIC was 0.05 µg/mL (≈ 0.116 µM).

As to `Cc1ncccc1Nc1cc2nc3ccccc3n(-c3ccc(Br)cc3)c-2c/c1=N\C(C)C` [TBI-507, 5-(4-Bromophenyl)-3-(1-methylethyl)imino-2-(2-methyl-3-pyridyl)amino-3,5-dihydrophenazine], the MIC worked out at 0.062 µg/mL (≈ 0.124 µM).

As for `Cc1ncccc1Nc1cc2nc3ccccc3n(-c3ccc(Br)cc3)c-2c/c1=N\C1CCCCC1` [TBI-508, 5-(4-Bromophenyl)-3-cyclohexylimino-2-(2-methyl-3-pyridyl)amino-3,5-dihydrophenazine], the MIC amounted to 0.021 µg/mL (≈ 0.039 µM). The figure for `COC1CCC(/N=c2\cc3n(-c4ccc(Br)cc4)c4ccccc4nc-3cc2Nc2cccnc2C)CC1` (stereo not drawn) [TBI-509, 5-(4-Bromophenyl)-3-(4-methoxycyclohexyl)imino-2-(2-methyl-3-pyridyl)amino-3,5-dihydrophenazine] is 0.015 µg/mL (≈ 0.0264 µM); for `COc1ccc(Nc2cc3nc4ccccc4n(-c4ccccc4)c-3c/c2=N\C(C)C)cn1` [TBI-510, 5-Phenyl-3-(1-methylethyl)imino-2-(6-methoxy-3-pyridyl)amino-3,5-dihydrophenazine] it is 0.5 µg/mL (≈ 1.15 µM). With `COc1ccc(Nc2cc3nc4ccccc4n(-c4ccccc4)c-3c/c2=N\C2CC2)cn1` [TBI-511, 5-Phenyl-3-cyclopropylimino-2-(6-methoxy-3-pyridyl)amino-3,5-dihydrophenazine], the MIC was 0.177 µg/mL (≈ 0.408 µM). With `COc1ccc(Nc2cc3nc4ccccc4n(-c4ccccc4)c-3c/c2=N\C2CCC2)cn1` [TBI-512, 5-Phenyl-3-cyclobutylimino-2-(6-methoxy-3-pyridyl)amino-3,5-dihydrophenazine], the MIC is 0.41 µg/mL (≈ 0.916 µM). In the case of `COc1ccc(Nc2cc3nc4ccccc4n(-c4ccccc4)c-3c/c2=N\C2CCCCC2)cn1` [TBI-513, 5-Phenyl-3-cyclohexylimino-2-(6-methoxy-3-pyridyl)amino-3,5-dihydrophenazine] it was 0.244 µg/mL (≈ 0.513 µM); in that of `COc1ccc(Nc2cc3nc4ccccc4n(-c4ccccc4)c-3c/c2=N\C2CCC(OC)CC2)cn1` (stereo not drawn) [TBI-514, 5-Phenyl-3-(4-methoxycyclohexyl)imino-2-(6-methoxy-3-pyridyl)amino-3,5-dihydrophenazine], 0.243 µg/mL (≈ 0.481 µM); in that of `COc1ccc(Nc2cc3nc4ccccc4n(-c4ccccc4)c-3c/c2=N\C2CCOCC2)cn1` [TBI-515, 5-Phenyl-3-(4-tetrahydropyranyl)imino-2-(6-methoxy-3-pyridyl)amino-3,5-dihydrophenazine], 0.233 µg/mL (≈ 0.488 µM). `COc1ncccc1Nc1cc2nc3ccccc3n(-c3ccc(Br)cc3)c-2c/c1=N\C(C)C` [TBI-516, 5-(4-Bromophenyl)-3-(1-methylethyl)imino-2-(2-methoxy-3-pyridyl)amino-3,5-dihydrophenazine]: the MIC was found to be 0.049 µg/mL (≈ 0.0953 µM). Take `COc1ncccc1Nc1cc2nc3ccccc3n(-c3ccc(Br)cc3)c-2c/c1=N\C1CCCCC1` [TBI-517, 5-(4-Bromophenyl)-3-cyclohexylimino-2-(2-methoxy-3-pyridyl)amino-3,5-dihydrophenazine]: the MIC was 0.029 µg/mL (≈ 0.0523 µM). Consider `COc1ncccc1Nc1cc2nc3ccccc3n(-c3ccc(Br)cc3)c-2c/c1=N\C1CCOCC1` [TBI-518, 5-(4-Bromophenyl)-3-(4-tetrahydropyranyl)imino-2-(2-methoxy-3-pyridyl)amino-3,5-dihydrophenazine], for which the MIC is 0.02 µg/mL (≈ 0.0359 µM).

On to `COc1ncccc1Nc1cc2nc3ccccc3n(-c3ccc(Br)cc3)c-2c/c1=N\C1CCC1` [TBI-520], for which the MIC was determined as 0.043 µg/mL (≈ 0.0817 µM). In the case of `COc1ncccc1Nc1cc2nc3ccccc3n(-c3ccc(Br)cc3)c-2c/c1=N\C1CCC(OC)CC1` (stereo not drawn) [TBI-521, 5-(4-Bromophenyl)-3-(4-methoxycyclohexyl)imino-2-(2-methoxy-3-pyridyl)amino-3,5-dihydrophenazine] it was 0.031 µg/mL (≈ 0.053 µM); in that of `COc1ncccc1Nc1cc2nc3ccccc3n(-c3cccc(F)c3)c-2c/c1=N\C(C)C` [TBI-523], 0.06 µg/mL (≈ 0.132 µM); in that of `CC(C)/N=c1\cc2n(-c3ccc(F)c(F)c3)c3ccccc3nc-2cc1Nc1cccnc1` [TBI-525, 5-(3,4-Difluorophenyl)-3-(1-methylethyl)imino-2-(3-pyridyl)amino-3,5-dihydrophenazine], 0.058 µg/mL (≈ 0.131 µM). In the case of `Fc1ccc(-n2c3c/c(=N\C4CCC4)c(Nc4cccnc4)cc-3nc3ccccc32)cc1F` [TBI-526, 5-(3,4-Difluorophenyl)-3-cyclobutylimino-2-(3-pyridyl)amino-3,5-dihydrophenazine] it was 0.079 µg/mL (≈ 0.174 µM); in that of `Fc1ccc(-n2c3c/c(=N\C4CCCCC4)c(Nc4cccnc4)cc-3nc3ccccc32)cc1F` [TBI-527, 5-(3,4-Difluorophenyl)-3-cyclohexylimino-2-(3-pyridyl)amino-3,5-dihydrophenazine], 0.039 µg/mL (≈ 0.081 µM). For the compound `COCC(COC)/N=c1\cc2n(-c3ccc(F)c(F)c3)c3ccccc3nc-2cc1Nc1cccnc1` [TBI-528, 5-(3,4-Difluorophenyl)-3-(1,3-dimethoxyisopropyl)imino-2-(3-pyridyl)amino-3,5-dihydrophenazine], the MIC amounted to 0.216 µg/mL (≈ 0.431 µM).

With `COc1ncccc1Nc1cc2nc3ccccc3n(-c3ccc(F)c(F)c3)c-2c/c1=N\C1CCC1` [TBI-530, 5-(3,4-Difluorophenyl)-3-cyclobutylimino-2-(2-methoxy-3-pyridyl)amino-3,5-dihydrophenazine], the MIC turned out to be 0.04 µg/mL (≈ 0.0827 µM). Turning to `COc1ncccc1Nc1cc2nc3ccccc3n(-c3ccc(F)c(F)c3)c-2c/c1=N\C1CCCCC1` [TBI-531, 5-(3,4-Difluorophenyl)-3-cyclohexylimino-2-(2-methoxy-3-pyridyl)amino-3,5-dihydrophenazine], the MIC is 0.03 µg/mL (≈ 0.0586 µM).
